Calls of active or inactive are those of the source. The rule behind the calls is not given here.
Experiments:
[1] = target: MAP kinase-interacting serine/threonine-protein kinase 2 (Homo sapiens) (UniProt Q9HBH9); assay: Inhibition of human MKNK2 at 1 uM using RB-S6P as substrate in presence of 33P-ATP by ProQinase assay
[2] = target: Serine/threonine-protein kinase PLK3 (Homo sapiens) (UniProt Q9H4B4); assay: Inhibition of human PLK3 at 1 uM using casein as substrate in presence of 33P-ATP by ProQinase assay
Serine/threonine-protein kinase PLK3 (Homo sapiens), sequence (Q9H4B4 whole entry, looked up): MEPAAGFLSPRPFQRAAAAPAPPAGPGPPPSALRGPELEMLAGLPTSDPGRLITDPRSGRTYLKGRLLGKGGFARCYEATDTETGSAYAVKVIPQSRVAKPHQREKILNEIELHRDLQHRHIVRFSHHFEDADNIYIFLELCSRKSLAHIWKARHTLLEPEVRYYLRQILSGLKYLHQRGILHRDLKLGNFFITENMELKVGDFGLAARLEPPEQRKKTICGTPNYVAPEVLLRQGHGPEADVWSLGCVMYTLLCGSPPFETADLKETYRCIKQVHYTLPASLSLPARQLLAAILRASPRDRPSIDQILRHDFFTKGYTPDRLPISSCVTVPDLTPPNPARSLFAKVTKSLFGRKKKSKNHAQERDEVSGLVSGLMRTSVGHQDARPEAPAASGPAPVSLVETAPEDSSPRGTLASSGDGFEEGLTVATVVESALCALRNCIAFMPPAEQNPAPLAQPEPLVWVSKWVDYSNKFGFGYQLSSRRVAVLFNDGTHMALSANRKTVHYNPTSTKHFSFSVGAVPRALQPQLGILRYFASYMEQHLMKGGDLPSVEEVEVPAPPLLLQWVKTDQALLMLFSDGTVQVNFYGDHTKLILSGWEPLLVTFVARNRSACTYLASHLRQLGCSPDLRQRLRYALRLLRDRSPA

[3] = target: Dual specificity protein kinase CLK3 (Homo sapiens) (UniProt P49761); assay: Inhibition of human CLK3 at 1 uM using RB-S6P as substrate in presence of 33P-ATP by ProQinase assay
[4] = target: Mitogen-activated protein kinase kinase kinase 11 (Homo sapiens) (UniProt Q16584); assay: (§1) Inhibition of recombinant human N-terminal GST-tagged MLK3 (96 to 386 residues) expressed in baculovirus infected Sf21 cells assessed as remaining activity at 1 uM using MBP as substrate incubated for 30 mins in presence of [gamma-33P]ATP by filter binding method relative to control
[5] = target: Discoidin domain-containing receptor 2 (Homo sapiens) (UniProt Q16832); assay: Inhibition of recombinant human N-terminal GST-tagged DDR2 (467 to 854 residues) expressed in baculovirus infected Sf21 cells assessed as remaining activity at 1 uM using KKSRGDYMTMQIG as substrate incubated for 30 mins in presence of [gamma-33P]ATP by filter binding method relative to control
[6] = target: Testis-specific serine/threonine-protein kinase 2 (Homo sapiens) (UniProt Q96PF2); assay: Inhibition of human TSK2 at 1 uM using RBER-CHKtide as substrate in presence of 33P-ATP by ProQinase assay
[7] = target: Dual specificity tyrosine-phosphorylation-regulated kinase 1A (Homo sapiens) (UniProt Q13627); assay: Inhibition of recombinant human N-terminal GST-tagged DYRK1A (1 to 502 residues) expressed in Escherichia coli assessed as remaining activity at 1 uM using KKISGRLSPIMTEQ as substrate incubated for 30 mins in presence of [gamma-33P]ATP by filter binding method relative to control
[8] = target: Phosphatidylinositol 4-phosphate 3-kinase C2 domain-containing subunit beta (Homo sapiens, UniProt O00750); assay: Inhibition of PI3KC2beta (unknown origin) at 1 uM
Phosphatidylinositol 4-phosphate 3-kinase C2 domain-containing subunit beta, sequence (O00750 whole entry, the tested form may be a part): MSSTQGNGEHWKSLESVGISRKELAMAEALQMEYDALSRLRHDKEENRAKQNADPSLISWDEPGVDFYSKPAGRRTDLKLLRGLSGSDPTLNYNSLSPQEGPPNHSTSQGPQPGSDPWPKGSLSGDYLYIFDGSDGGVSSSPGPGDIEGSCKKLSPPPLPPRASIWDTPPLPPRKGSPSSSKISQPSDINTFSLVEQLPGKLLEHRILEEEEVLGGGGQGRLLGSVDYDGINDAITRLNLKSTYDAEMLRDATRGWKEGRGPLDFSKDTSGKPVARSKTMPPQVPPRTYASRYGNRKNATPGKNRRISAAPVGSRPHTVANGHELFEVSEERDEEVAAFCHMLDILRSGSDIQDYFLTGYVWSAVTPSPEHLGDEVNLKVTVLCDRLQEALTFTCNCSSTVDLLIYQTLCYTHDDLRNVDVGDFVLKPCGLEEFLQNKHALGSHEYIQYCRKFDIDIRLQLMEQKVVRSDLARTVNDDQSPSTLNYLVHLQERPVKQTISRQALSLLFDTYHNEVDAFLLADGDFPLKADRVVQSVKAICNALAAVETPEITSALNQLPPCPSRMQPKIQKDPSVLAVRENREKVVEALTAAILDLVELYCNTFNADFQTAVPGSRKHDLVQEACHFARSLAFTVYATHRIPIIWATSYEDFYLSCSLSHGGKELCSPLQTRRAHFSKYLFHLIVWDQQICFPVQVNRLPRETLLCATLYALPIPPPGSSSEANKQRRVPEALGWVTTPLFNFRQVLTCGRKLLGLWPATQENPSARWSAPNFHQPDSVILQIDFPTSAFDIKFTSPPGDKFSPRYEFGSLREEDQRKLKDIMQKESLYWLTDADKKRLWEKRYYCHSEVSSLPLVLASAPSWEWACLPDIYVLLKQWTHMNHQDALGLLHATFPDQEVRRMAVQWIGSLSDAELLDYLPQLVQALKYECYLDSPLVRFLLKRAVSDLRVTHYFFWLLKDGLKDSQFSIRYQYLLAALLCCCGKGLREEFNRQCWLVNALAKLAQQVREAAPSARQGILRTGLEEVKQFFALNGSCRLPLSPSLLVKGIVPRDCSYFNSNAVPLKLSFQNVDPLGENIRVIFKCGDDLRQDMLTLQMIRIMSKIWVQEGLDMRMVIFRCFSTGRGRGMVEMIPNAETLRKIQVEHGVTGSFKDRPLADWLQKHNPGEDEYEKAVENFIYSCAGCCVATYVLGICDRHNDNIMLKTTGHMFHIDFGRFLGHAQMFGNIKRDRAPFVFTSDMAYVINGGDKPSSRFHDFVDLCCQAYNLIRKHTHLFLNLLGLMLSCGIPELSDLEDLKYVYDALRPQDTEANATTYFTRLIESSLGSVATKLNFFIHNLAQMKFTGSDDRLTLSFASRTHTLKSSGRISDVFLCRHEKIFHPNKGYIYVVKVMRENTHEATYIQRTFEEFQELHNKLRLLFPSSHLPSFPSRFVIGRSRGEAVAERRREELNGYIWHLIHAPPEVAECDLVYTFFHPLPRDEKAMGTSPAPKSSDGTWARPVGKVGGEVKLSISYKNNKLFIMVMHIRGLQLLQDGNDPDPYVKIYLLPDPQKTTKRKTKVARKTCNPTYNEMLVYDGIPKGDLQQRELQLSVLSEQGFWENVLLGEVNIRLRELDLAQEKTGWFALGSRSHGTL

[9] = target: Focal adhesion kinase 1 (Homo sapiens) (UniProt Q05397); assay: Inhibition of human FAK (2 to 1052 residues) at 1 uM using polyEY as substrate in presence of 33P-ATP by ProQinase assay
[10] = target: Mitogen-activated protein kinase kinase kinase 9 (Homo sapiens) (UniProt P80192); assay: Inhibition of recombinant human N-terminal GST-tagged MLK1 (132 to 413 residues) expressed in baculovirus infected Sf21 cells assessed as remaining activity at 1 uM using MBP as substrate incubated for 30 mins in presence of [gamma-33P]ATP by filter binding method relative to control
Mitogen-activated protein kinase kinase kinase 9 (Homo sapiens), sequence (P80192 whole entry, looked up, the tested form may be a part): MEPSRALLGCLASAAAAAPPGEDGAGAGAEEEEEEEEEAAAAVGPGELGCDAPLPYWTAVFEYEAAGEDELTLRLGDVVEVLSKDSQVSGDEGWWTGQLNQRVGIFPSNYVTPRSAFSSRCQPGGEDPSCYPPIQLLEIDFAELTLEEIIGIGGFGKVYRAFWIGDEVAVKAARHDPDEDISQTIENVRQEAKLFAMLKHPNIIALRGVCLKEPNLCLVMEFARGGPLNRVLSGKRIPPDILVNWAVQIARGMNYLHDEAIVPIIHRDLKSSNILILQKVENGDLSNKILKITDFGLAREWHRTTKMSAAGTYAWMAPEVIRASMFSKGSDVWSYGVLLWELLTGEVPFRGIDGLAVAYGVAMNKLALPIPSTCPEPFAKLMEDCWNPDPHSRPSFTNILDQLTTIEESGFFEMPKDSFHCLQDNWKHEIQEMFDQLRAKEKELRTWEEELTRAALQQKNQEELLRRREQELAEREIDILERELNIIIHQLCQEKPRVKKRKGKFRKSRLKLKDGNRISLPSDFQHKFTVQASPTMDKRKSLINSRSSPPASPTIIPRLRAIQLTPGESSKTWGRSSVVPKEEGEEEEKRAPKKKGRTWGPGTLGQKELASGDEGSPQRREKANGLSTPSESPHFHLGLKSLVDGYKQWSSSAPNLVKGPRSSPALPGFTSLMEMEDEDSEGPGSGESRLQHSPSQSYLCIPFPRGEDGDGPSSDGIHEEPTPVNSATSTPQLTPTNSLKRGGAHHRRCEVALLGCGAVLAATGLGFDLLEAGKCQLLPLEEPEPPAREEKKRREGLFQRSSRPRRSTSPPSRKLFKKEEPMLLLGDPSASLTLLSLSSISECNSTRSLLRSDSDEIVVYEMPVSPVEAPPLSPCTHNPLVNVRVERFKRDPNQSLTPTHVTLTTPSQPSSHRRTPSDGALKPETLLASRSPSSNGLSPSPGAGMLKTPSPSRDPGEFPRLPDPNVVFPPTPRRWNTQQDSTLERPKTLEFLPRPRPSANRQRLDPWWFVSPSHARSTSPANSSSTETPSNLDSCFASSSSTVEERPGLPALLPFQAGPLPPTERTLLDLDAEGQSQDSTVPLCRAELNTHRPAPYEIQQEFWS

[11] = target: High affinity nerve growth factor receptor (Homo sapiens) (UniProt P04629); assay: Inhibition of human TRKA at 1 uM using PolyEY as substrate in presence of 33P-ATP by ProQinase assay
[12] = target: Megakaryocyte-associated tyrosine-protein kinase (Homo sapiens) (UniProt P42679); assay: Inhibition of human MATK at 1 uM using polyEy as substrate in presence of 33P-ATP by ProQinase assay
[13] = tested on: Serine/threonine-protein kinase Sgk1 (Homo sapiens), O00141 [S422D]; conditions: Sf21, dose 1.0 µM, time 30.0 min
[14] = target: Mitogen-activated protein kinase 9 (Homo sapiens) (UniProt P45984); assay: Inhibition of human JNK2 at 1 uM using ATF2 as substrate in presence of 33P-ATP by ProQinase assay
[15] = target: Diacylglycerol kinase zeta (Homo sapiens) (UniProt Q13574); assay: Inhibition of recombinant human N-terminal His6-tagged DGKzeta (1 to 929 residues) expressed in baculovirus expression system at 1 uM using diacyl-glycerol as substrate incubated for 40 mins by ADP-Glo assay
[16] = target: Dual specificity tyrosine-phosphorylation-regulated kinase 2 (Homo sapiens) (UniProt Q92630); assay: Inhibition of human DYRK2 at 1 uM using RBER-IRStide as substrate in presence of 33P-ATP by ProQinase assay
Dual specificity tyrosine-phosphorylation-regulated kinase 2 (Homo sapiens), sequence (Q92630 whole entry): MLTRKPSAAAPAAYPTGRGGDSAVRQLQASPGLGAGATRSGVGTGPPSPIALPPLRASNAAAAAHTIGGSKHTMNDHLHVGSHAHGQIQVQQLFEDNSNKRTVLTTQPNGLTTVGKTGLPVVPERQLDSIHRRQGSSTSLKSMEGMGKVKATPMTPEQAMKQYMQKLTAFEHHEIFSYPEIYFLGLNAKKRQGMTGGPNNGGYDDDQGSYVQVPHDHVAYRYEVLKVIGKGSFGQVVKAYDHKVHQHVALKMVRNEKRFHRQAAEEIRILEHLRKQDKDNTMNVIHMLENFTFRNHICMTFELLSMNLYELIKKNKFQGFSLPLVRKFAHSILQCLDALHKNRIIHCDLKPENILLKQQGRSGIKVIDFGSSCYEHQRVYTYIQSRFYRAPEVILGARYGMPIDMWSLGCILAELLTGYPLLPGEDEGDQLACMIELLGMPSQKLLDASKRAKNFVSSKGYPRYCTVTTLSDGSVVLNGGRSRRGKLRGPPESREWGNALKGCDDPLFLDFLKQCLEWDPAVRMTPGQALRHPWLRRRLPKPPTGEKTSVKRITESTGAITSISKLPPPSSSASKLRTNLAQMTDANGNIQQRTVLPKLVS

[17] = target: Serine/threonine-protein kinase PAK 5 (Homo sapiens) (UniProt Q9P286); assay: Inhibition of human PAK7 at 1 uM using bio-4xCHKT as substrate in presence of 33P-ATP by ProQinase assay
[18] = target: Mitogen-activated protein kinase kinase kinase 9 (Homo sapiens) (UniProt P80192); assay: Inhibition of human MAP3K9 at 1 uM using RBER-GSK3 as substrate in presence of 33P-ATP by ProQinase assay
[19] = target: Serine/threonine-protein kinase Chk2 (Homo sapiens) (UniProt O96017); assay: Inhibition of recombinant human N-terminal GST/C-terminal His6-tagged CHK2 (5 to 543 residues) expressed in Escherichia coli assessed as remaining activity at 1 uM using CHKtide as substrate incubated for 30 mins in presence of [gamma-33P]ATP by filter binding method relative to control
[20] = target: Serine/threonine-protein kinase PAK 2 (Homo sapiens) (UniProt Q13177); assay: Inhibition of human PAK2 at 1 uM using bio-4xCHKT as substrate in presence of 33P-ATP by ProQinase assay
[21] = target: Serine/threonine-protein kinase SIK2 (Homo sapiens) (UniProt Q9H0K1); assay: as §1, with “GST and HA-tagged SIK2 (2” for “GST-tagged MLK3 (96”, “926” for “386”, “ALNRTSSDSALHRRR” for “MBP”
[22] = target: Macrophage colony-stimulating factor 1 receptor (Homo sapiens) (UniProt P07333); assay: Inhibition of human CSF1R at 1 uM using polyEY as substrate in presence of 33P-ATP by ProQinase assay
[23] = target: Ephrin type-A receptor 4 (Homo sapiens) (UniProt P54764); assay: Inhibition of recombinant human N-terminal GST-tagged EPHA4 (570 to 986 residues) expressed in Escherichia coli assessed as remaining activity at 1 uM using Poly (Glu,Tyr) as substrate incubated for 30 mins in presence of [gamma-33P]ATP by filter binding method relative to control
Ephrin type-A receptor 4 (Homo sapiens), sequence (P54764 whole entry, the tested form may be a part): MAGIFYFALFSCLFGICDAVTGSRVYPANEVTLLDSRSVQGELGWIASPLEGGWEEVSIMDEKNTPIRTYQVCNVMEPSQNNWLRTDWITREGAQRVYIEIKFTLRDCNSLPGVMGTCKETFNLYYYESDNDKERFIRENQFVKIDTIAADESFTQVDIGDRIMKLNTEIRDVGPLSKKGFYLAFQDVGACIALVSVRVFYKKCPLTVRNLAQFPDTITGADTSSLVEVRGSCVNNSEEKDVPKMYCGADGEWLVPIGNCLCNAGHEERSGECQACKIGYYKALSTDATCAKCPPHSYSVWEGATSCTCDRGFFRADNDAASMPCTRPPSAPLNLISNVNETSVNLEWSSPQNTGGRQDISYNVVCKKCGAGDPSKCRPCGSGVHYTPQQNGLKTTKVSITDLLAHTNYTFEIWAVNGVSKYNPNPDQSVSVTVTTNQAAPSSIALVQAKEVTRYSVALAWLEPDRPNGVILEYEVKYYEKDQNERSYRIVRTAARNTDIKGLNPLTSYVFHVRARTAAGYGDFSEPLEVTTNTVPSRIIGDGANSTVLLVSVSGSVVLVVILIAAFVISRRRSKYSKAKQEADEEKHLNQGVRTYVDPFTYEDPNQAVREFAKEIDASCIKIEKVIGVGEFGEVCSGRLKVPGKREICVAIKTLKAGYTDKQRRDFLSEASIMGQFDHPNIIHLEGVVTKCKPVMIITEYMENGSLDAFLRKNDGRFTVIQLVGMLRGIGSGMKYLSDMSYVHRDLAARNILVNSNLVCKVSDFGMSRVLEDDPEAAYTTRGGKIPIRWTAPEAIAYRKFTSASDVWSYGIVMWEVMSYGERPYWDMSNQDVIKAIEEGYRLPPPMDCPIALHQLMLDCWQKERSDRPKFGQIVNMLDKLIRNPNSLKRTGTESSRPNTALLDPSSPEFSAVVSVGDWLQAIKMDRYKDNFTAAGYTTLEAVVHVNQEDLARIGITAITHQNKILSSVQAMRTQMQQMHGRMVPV

[24] = target: Serine/threonine-protein kinase WNK2 (Homo sapiens) (UniProt Q9Y3S1); assay: Inhibition of human WNK2 at 1 uM using RBER-CHKtide as substrate in presence of 33P-ATP by ProQinase assay
[25] = target: Calcium/calmodulin-dependent protein kinase type II subunit delta (Homo sapiens) (UniProt Q13557); assay: Inhibition of human CAMK2D at 1 uM using RBER-CHKtide as substrate in presence of 33P-ATP by ProQinase assay

With CC(C)(O)CNc1ncc(-c2ccnc(Nc3ccnc(Cl)c3)n2)c(CC2CC2)n1 the inhibition [1] was “inactive”, the inhibition [2] was “inactive” and the inhibition [3] was “inactive”. For the same compound, the Activity [4] was 129%, the Activity [5] was 111% and the inhibition [6] was “inactive”. For the same compound, the Activity [7] was 105%, the inhibition [8] was “inactive” and the inhibition [9] was “inactive”. For the same compound, the Activity [10] was 119%, the inhibition [11] was “inactive” and the inhibition [12] was “inactive”. The Activity [13] was 108%, the inhibition [14] was “inactive” and the inhibition [15] was “inactive”. The inhibition [16] was “inactive”, the inhibition [17] was “inactive” and the inhibition [18] was “inactive”. The Activity [19] was 103%, the inhibition [20] was “inactive” and the Activity [21] was 106%. For the same compound, the inhibition [22] was “inactive”, the Activity [23] was 93% and the inhibition [24] was “inactive”. The inhibition [25] was “inactive”.

Reference: ChEMBL document CHEMBL5705899 (Biochem J, 2014)
